Assay results taken from ChEMBL document CHEMBL1141055, “Discovery of novel conformationally restricted diazocan peptidomimetics as inhibitors of interleukin-1beta synthesis” (Bioorg Med Chem Lett, 2005).
pIC50: −log10 of the molar value.

Assays:
THP-1 = assay: Inhibition of 1 ug/mL LPS-induced IL1-beta production in human monocytic cells after 4 hrs; format: functional, cell-based; conditions: THP-1, 4 h
Caspase-3 = molecular target: T1, Caspase-3 (Homo sapiens, UniProt P42574); assay: Inhibition of caspase 3 using fluorogenic substrate and BMG Fluostar plate reader for 30 min at 37 degree C
T1 sequence (P42574 whole entry): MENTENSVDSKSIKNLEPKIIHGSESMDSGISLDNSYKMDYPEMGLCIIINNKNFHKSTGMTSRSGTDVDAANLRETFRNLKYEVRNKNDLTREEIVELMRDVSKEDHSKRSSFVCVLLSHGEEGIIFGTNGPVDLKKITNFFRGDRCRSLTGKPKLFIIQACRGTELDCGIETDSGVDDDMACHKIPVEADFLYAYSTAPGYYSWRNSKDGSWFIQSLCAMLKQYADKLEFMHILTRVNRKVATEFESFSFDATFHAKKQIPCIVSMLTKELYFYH

Caspase-8 = Caspase-8 (Homo sapiens, UniProt Q14790); assay: Inhibition of caspase 8 using fluorogenic substrate and BMG Fluostar plate reader for 30 min at 37 degree C
Chain of Caspase-8 (Q14790 217-374 limits assumed): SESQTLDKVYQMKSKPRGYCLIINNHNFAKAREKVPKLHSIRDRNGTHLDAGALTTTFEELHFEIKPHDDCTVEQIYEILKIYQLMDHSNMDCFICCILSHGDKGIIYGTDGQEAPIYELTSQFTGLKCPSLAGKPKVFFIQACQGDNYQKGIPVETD
Chain of Caspase-8 (Q14790 385-479 limits assumed): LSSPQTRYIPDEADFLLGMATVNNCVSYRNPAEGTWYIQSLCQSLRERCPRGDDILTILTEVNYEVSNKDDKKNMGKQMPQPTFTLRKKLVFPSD

Caspase-1 = molecular target: T2, Caspase-1 (Homo sapiens, UniProt P29466); assay: Inhibition of caspase-1 using fluorogenic substrate and BMG Fluostar plate reader for 30 min at 37 degree C
T2 sequence (P29466 whole entry): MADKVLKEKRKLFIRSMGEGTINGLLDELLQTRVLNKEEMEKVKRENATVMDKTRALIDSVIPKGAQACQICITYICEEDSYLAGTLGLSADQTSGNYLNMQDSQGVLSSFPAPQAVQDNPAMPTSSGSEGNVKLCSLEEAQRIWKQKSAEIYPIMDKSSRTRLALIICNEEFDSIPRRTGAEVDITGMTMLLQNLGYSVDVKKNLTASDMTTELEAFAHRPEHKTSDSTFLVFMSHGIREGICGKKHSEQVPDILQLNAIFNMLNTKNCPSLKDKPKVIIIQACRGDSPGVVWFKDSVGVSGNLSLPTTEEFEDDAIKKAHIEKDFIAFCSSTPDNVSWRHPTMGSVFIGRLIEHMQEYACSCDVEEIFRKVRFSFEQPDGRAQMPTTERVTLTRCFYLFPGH

pIC50 (THP-1) | pIC50 (Caspase-3) | pIC50 (Caspase-8) | pIC50 (Caspase-1) | SMILES
6.64 | < 5.00 | < 5.00 | 7.82 | COc1cccc(C(=O)N2CCCN(CC(=O)N[C@H]3CC(=O)OC3O)C(=O)[C@@H](NC(=O)c3ccc4ccccc4c3)C2)c1 (stereo partly specified)
6.55 | < 5.00 | < 5.00 | 7.62 | O=C(CN1CCCN(C(=O)N2CCNCC2)C[C@H](NC(=O)c2ccc3ccccc3c2)C1=O)N[C@H]1CC(=O)OC1O (stereo partly specified)
6.92 | – | – | 8.70 | CCO[C@@H]1OC(=O)C[C@@H]1NC(=O)[C@@H]1CCCN2C(=O)CC[C@H](NC(=O)c3nccc4ccccc34)C(=O)N12 [PRALNACASAN]
6.66 | – | – | – | O=CN1CCCN(CC(=O)N[C@H]2CC(=O)OC2O)C(=O)[C@@H](NC(=O)c2ccc3ccccc3c2)C1 (stereo partly specified)
6.69 | < 5.00 | < 5.00 | 7.72 | O=C(CN1CCCN(C(=O)c2ccccc2)C[C@H](NC(=O)c2ccc3ccccc3c2)C1=O)N[C@H]1CC(=O)OC1O (stereo partly specified)
6.53 | – | – | – | Cc1ccc(Cl)cc1C(=O)N[C@H]1CN(C(=O)c2ccccc2)CCCN(CC(=O)N[C@H]2CC(=O)OC2O)C1=O (stereo partly specified)
5.82 | – | – | – | O=C(CN1CCCN(C(=O)c2ccccc2C(F)(F)F)C[C@H](NC(=O)c2ccc3ccccc3c2)C1=O)N[C@H]1CC(=O)OC1O (stereo partly specified)
5.99 | – | – | – | O=C(CN1CCCN(C(=O)c2ccccc2)C[C@H](NC(=O)c2ccccc2)C1=O)N[C@H]1CC(=O)OC1O (stereo partly specified)
6.55 | < 5.00 | < 5.00 | 7.52 | O=C(CN1CCCN(C(=O)c2ccccc2)C[C@H](NC(=O)c2nccc3ccccc23)C1=O)N[C@H]1CC(=O)OC1O (stereo partly specified)
6.67 | – | – | – | CC(=O)N1CCCN(CC(=O)N[C@H]2CC(=O)OC2O)C(=O)[C@@H](NC(=O)c2ccc3ccccc3c2)C1 (stereo partly specified)

More lines, now with the values behind:

SMILES | pIC50 (THP-1) | pIC50 (Caspase-3) | pIC50 (Caspase-8) | pIC50 (Caspase-1)
O=C(CN1CCCN(C(=O)Cc2ccccc2)C[C@H](NC(=O)c2ccc3ccccc3c2)C1=O)N[C@H]1CC(=O)OC1O (stereo partly specified) | 6.09 | – | – | –
O=C(CN1CCCN(C(=O)c2cccc(F)c2)C[C@H](NC(=O)c2ccc3ccccc3c2)C1=O)N[C@H]1CC(=O)OC1O (stereo partly specified) | 6.53 | < 5.00 | < 5.00 | 7.66
O=C(CN1CCCN(C(=O)c2ccccc2)C[C@H](NC(=O)c2cccc(C(F)(F)F)c2)C1=O)N[C@H]1CC(=O)OC1O (stereo partly specified) | 5.99 | – | – | –
Cc1ccc(Cl)cc1C(=O)N1CCCN(CC(=O)N[C@H]2CC(=O)OC2O)C(=O)[C@@H](NC(=O)c2ccc3ccccc3c2)C1 (stereo partly specified) | < 5.60 | – | – | –
O=C(CN1CCCN(C(=O)N2CCOCC2)C[C@H](NC(=O)c2ccc3ccccc3c2)C1=O)N[C@H]1CC(=O)OC1O (stereo partly specified) | 6.65 | < 5.00 | < 5.00 | 7.36
O=C(CN1CCCN(C(=O)c2ccccc2)C[C@H](NC(=O)c2cc3ccccc3s2)C1=O)N[C@H]1CC(=O)OC1O (stereo partly specified) | 6.25 | – | – | –
O=C(CN1CCCN(C(=O)C2CCCCC2)C[C@H](NC(=O)c2ccc3ccccc3c2)C1=O)N[C@H]1CC(=O)OC1O (stereo partly specified) | 6.24 | – | – | –
O=C(CN1CCCN(C(=O)c2cccc(C(F)(F)F)c2)C[C@H](NC(=O)c2ccc3ccccc3c2)C1=O)N[C@H]1CC(=O)OC1O (stereo partly specified) | 5.76 | – | – | –
COc1ccccc1C(=O)N1CCCN(CC(=O)N[C@H]2CC(=O)OC2O)C(=O)[C@@H](NC(=O)c2ccc3ccccc3c2)C1 (stereo partly specified) | 6.61 | < 5.00 | < 5.00 | 7.42
